Reference: ChEMBL document CHEMBL2424514, “Prediction of glucagon receptor antagonist activities of some substituted imidazoles using combined radial basis function neural network and density functional theory” (Med Chem Res, 2013)

Target: Glucagon receptor (Homo sapiens, UniProt P47871)
Test: Inhibition of human glucagon receptor expressed in CHO cell membranes by radioligand displacement assay
Format: cell-based

Glucagon receptor, sequence (P47871 whole entry): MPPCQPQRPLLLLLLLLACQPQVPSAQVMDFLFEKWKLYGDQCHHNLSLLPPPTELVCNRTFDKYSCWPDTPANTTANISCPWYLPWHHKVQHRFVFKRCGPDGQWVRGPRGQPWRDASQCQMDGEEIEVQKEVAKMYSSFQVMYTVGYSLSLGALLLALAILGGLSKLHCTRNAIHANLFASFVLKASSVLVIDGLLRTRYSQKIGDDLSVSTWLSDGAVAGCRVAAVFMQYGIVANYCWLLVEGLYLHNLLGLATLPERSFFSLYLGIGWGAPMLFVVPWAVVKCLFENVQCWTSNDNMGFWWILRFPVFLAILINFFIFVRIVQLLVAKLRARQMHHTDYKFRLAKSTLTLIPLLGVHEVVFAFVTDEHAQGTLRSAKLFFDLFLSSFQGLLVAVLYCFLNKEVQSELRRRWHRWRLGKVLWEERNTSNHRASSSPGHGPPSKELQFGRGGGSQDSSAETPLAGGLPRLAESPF

Row | SMILES | IC50
1 | Fc1ccc(-c2[nH]c(-c3ccc(-c4ccccc4)cc3)nc2-c2ccncc2)cc1 | 301 nM
2 | Clc1ccc(-c2nc(-c3ccncc3)c(-c3ccccc3Oc3ccccc3)[nH]2)cc1 | 150 nM
3 | Clc1ccc(-c2nc(-c3ccc(-c4ccccc4)cc3)c(-c3ccncc3)[nH]2)cc1 | 3300 nM
4 | Clc1ccc(-c2nc(-c3ccncc3)c(-c3ccc(Cl)cc3)[nH]2)cc1 | 23 nM
5 | Cc1cnccc1-c1nc(-c2ccc(Cl)cc2)[nH]c1-c1ccc(F)cc1 | 20 nM
6 | Clc1ccc(-c2nc(-c3ccncc3)c(-c3ccc(Oc4ccccc4)cc3)[nH]2)cc1 | 250 nM
7 | Clc1ccc(-c2nc(-c3ccncc3)c(-c3cccc(Oc4ccccc4)c3)[nH]2)cc1 | 220 nM
8 | Brc1ccc(-c2nc(-c3ccncc3)c(-c3ccccc3)[nH]2)cc1 | 40.1 nM
9 | Fc1ccc(-c2[nH]c(-c3cccc4ccccc34)nc2-c2ccncc2)cc1 | 340 nM
10 | Brc1ccc(-c2nc(-c3ccccc3)c(-c3ccccc3)[nH]2)cc1 | 2200 nM
11 | Clc1ccc(-c2nc(-c3ccc(I)cc3)c(-c3ccncc3)[nH]2)cc1 | 140 nM
12 | Fc1ccc(-c2[nH]c(CCc3ccccc3)nc2-c2ccncc2)cc1 | 120 nM
13 | Oc1ccc(-c2[nH]c(-c3ccc(Br)cc3)nc2-c2ccccc2)cc1 | 100 nM
14 | CCCOc1ccc(-c2[nH]c(-c3ccc(Cl)cc3)nc2-c2ccncc2)c(OCCC)c1 | 2400 nM
15 | Clc1ccc(-c2nc(-c3cccc(-c4ccccc4)c3)c(-c3ccncc3)[nH]2)cc1 | 590 nM
16 | Fc1ccc(-c2[nH]c(-c3ccc(Br)s3)nc2-c2ccncc2)cc1 | 110 nM
17 | Cc1cc(-c2[nH]c(-c3ccc(Cl)cc3)nc2-c2ccc(F)cc2)ccn1 | 50 nM

The next lines start with the values.

Row | IC50 | SMILES
18 | 521 nM | CSc1ccc(-c2nc(-c3ccc(F)cc3)c(-c3ccncc3)n2C)cc1
19 | 281 nM | CC(C)c1ccc(-c2nc(-c3ccc(F)cc3)c(-c3ccncc3)[nH]2)cc1
20 | 150 nM | Fc1ccc(-c2[nH]c(-c3cccc(Br)c3)nc2-c2ccncc2)cc1
21 | 160 nM | Fc1ccc(-c2nc(-c3ccc(Br)cc3)[nH]c2-c2ccncc2)cc1
22 | 210 nM | N#Cc1ccc(-c2nc(-c3ccncc3)c(-c3ccc(F)cc3)[nH]2)cc1
23 | 80.2 nM | Fc1ccc(-c2nc(-c3ccc(Cl)cc3)[nH]c2-c2ccncc2)cc1
24 | 90.2 nM | Cc1ccc(-c2nc(-c3ccc(F)cc3)c(-c3ccncc3)[nH]2)cc1
25 | 190 nM | Fc1ccc(-c2[nH]c(-c3ccc(Br)o3)nc2-c2ccncc2)cc1
26 | 861 nM | CSc1ccc(-c2nc(-c3ccncc3)c(-c3ccc(F)cc3)n2C)cc1
27 | 931 nM | CSc1ccc(-c2nc(-c3ccc(F)cc3)c(-c3ccncc3)o2)cc1
28 | 100 nM | Fc1ccc(-c2[nH]c(-c3ccc(I)cc3)nc2-c2ccncc2)cc1
29 | 90.2 nM | Fc1ccc(-c2[nH]c(-c3ccccc3Br)nc2-c2ccncc2)cc1
